Patent publication US12708644B2, “Dendritic cell vaccination sequential to chemotherapy” (Excoso a.s., priority 2018, dated 2026)
Read-outs that look alike come from different tables or passages of the source. Marks after values point to notes of the source that are not given here.

Columns and labels:
[1] = tested on: first-line patients of ovarian carcinoma; settings: cited from earlier work; for OS HR: compared to patients not treated with bevacizumab; for PFS HR: continuous after combination with carboplatin/paclitaxel
[2] = tested on: women with newly diagnosed epithelial ovarian carcinoma
Description: The study was conducted as an open label, multicenter, three-arm phase II clinical trial in women with newly diagnosed epithelial ovarian carcinoma, who have undergone debulking surgery.
The planned number of chemotherapy cycles was 6 in all treatment groups (FIG. 1).
Results were calculated either by using as beginning of the trial period the time of first treatment or the time of randomization. Two pre-planned per protocol interim analyses of PFS and OS from the date of randomization were performed first at 6 months and second at 12 months after the last dose of standard of care chemotherapy of the last enrolled patient. […]
A log-rank test was used for comparing the PFS and OS distributions of the two treatment groups: • H01: PFS/OS group A=PFS/OS group C vs H11: PFS/OS group C≠PFS/OS group A, • H02: PFS/OS group B=PFS/OS group C vs H12: PFS/OS group C≠PFS/OS group B.
The hazard ratio (HR) was calculated using Cox proportional hazard regression. The estimate for the HR was based on fitting a proportional hazards regression model: λ(t)=λ0(t)*exp(βz), • wherein λ0(t) is the baseline hazard function for group C, λ(t) is the hazard function for group A/group B, z is a binary covariate (being 1 for group A/group B and 0 for group C), and exp(β) is the HR. Efficacy in the ITT Population

[3] = bevacizumab 7.5 mg/kg IV q3w, 12 months
[4] = bevacizumab 15 mg/kg IV q3w, 15 months
[5] = treatment group C (standard of care chemotherapy alone), shorter reporting time period

Substance	OS HR [1, 3]	OS HR ([1]; bevacizumab 7.5 mg/kg IV q3w, 12 months, listed as Bevacizumab)	PFS HR [1, 3]	OS HR [1, 4]	OS HR ([1]; bevacizumab 15 mg/kg IV q3w, 15 months, listed as Bevacizumab)	PFS HR [1, 4]	Safety ([1]; side effects e.g. gastrointestinal perforation and fistulae, wound healing complications, hypertension, thromboembolism or haemorrhage, congestive heart failure, neutropenia and infections)	patients who have died ([2]; standard of care arm (group C), per-protocol population, more than 3.5 years after inclusion)	SAEs reported [2, 5]	patients with SAEs [2, 5]
bevacizumab	0.99	0.99^c	0.86^c	0.88	0.88^c	0.7^c	an increased risk for	–	–	–
carboplatin and paclitaxel	–	–	–	–	–	–	–	about 40%	14	9
